Several values for one entry are separate records, joined by “and”; a condition that tells them apart may be missing. Equal entries are not always repeated. Toxic doses and inconclusive results are not listed.
Tested on: P388 leukemia ip, CD2F1 mice, survival T/C
Test: NCI In Vivo Anticancer Drug Screen. Data for tumor model P388 Leukemia (intraperitoneal) in CD2F1 (CDF1) mice
Conditions: endpoint: median survival time, higher = longer survival
Method in brief: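 Mice carrying the transplanted tumor received test compound or vehicle. Survival was recorded in each group, and the value is the treated-group measurement divided by that of the vehicle-treated control group.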

[1] = dose: 50.0 mg/kg/injection, schedule: Q01DX009 (ip), vehicle: Klucel (hydroxypropylcellulose) (HPC)
[2] = dose: 100.0 mg/kg/injection, schedule: Q01DX009 (ip), vehicle: Klucel (hydroxypropylcellulose) (HPC)
[3] = dose: 200.0 mg/kg/injection, schedule: Q01DX009 (ip), vehicle: Klucel (hydroxypropylcellulose) (HPC)
[4] = dose: 25.0 mg/kg/injection, schedule: Q01DX005 (ip), vehicle: Klucel (hydroxypropylcellulose) (HPC)
[5] = dose: 50.0 mg/kg/injection, schedule: Q01DX005 (ip), vehicle: Klucel (hydroxypropylcellulose) (HPC)
[6] = dose: 100.0 mg/kg/injection, schedule: Q01DX005 (ip), vehicle: Klucel (hydroxypropylcellulose) (HPC)
[7] = dose: 200.0 mg/kg/injection, schedule: Q01DX005 (ip), vehicle: Klucel (hydroxypropylcellulose) (HPC)
[8] = dose: 12.5 mg/kg/injection, schedule: Q01DX009 (ip), vehicle: other
[9] = dose: 25.0 mg/kg/injection, schedule: Q01DX009 (ip), vehicle: other
[10] = dose: 50.0 mg/kg/injection, schedule: Q01DX009 (ip), vehicle: other
[11] = dose: 100.0 mg/kg/injection, schedule: Q01DX009 (ip), vehicle: other
[12] = dose: 200.0 mg/kg/injection, schedule: Q01DX009 (ip), vehicle: other
[13] = dose: 60.0 mg/kg/injection, schedule: Q01DX005 (ip), vehicle: saline with Tween-80
[14] = dose: 120.0 mg/kg/injection, schedule: Q01DX005 (ip), vehicle: saline with Tween-80
[15] = dose: 240.0 mg/kg/injection, schedule: Q01DX005 (ip), vehicle: saline with Tween-80

`CC(=O)O[C@H]1C[C@@H]2C(COC(=O)CC(C)C)=CO[C@@H](OC(=O)CC(C)C)[C@@H]2[C@@]12CO2` was tested, and the T/C (dose: 3.75 mg/kg/injection, schedule: Q01DX005 (ip), vehicle: Klucel (hydroxypropylcellulose) (HPC)) was 105 % of control, the T/C (dose: 7.5 mg/kg/injection, schedule: Q01DX005 (ip), vehicle: Klucel (hydroxypropylcellulose) (HPC)) was 101 % of control and the T/C (dose: 15.0 mg/kg/injection, schedule: Q01DX005 (ip), vehicle: Klucel (hydroxypropylcellulose) (HPC)) was 88 % of control. For the same compound, the T/C (dose: 30.0 mg/kg/injection, schedule: Q01DX005 (ip), vehicle: Klucel (hydroxypropylcellulose) (HPC)) was 95 % of control and the T/C (dose: 60.0 mg/kg/injection, schedule: Q01DX005 (ip), vehicle: Klucel (hydroxypropylcellulose) (HPC)) was 101 % of control.

In the case of `O=C1CCC(C(=O)N2CCCC2)N1` (stereo not given), the T/C (dose: 50.0 mg/kg/injection, schedule: Q01DX005 (ip), vehicle: saline) is reported as 96 % of control and 100 % of control, the T/C (dose: 100.0 mg/kg/injection, schedule: Q01DX005 (ip), vehicle: saline) is reported as 104 % of control and 98 % of control and the T/C (dose: 200.0 mg/kg/injection, schedule: Q01DX005 (ip), vehicle: saline) is reported as 104 % of control and 97 % of control.

`COC(=O)C(Cc1c[nH]c2ccccc12)NC(=O)C(NC(=O)OC(C)(C)C)C(C)C` (stereo not given) was tested, and the T/C [1] was 101 % of control, the T/C [2] was 99 % of control and the T/C [3] was 97 % of control. The T/C (dose: 400.0 mg/kg/injection, schedule: Q01DX009 (ip), vehicle: Klucel (hydroxypropylcellulose) (HPC)) was 90 % of control.

`CN1C(=O)c2ccccc2NC(=O)C12O[C@@H]2c1ccccc1` (stereo not given in full) was tested, and the T/C (dose: 1.88 mg/kg/injection, schedule: Q01DX005 (ip), vehicle: DMSO) was 100 % of control, the T/C (dose: 3.75 mg/kg/injection, schedule: Q01DX005 (ip), vehicle: DMSO) was 106 % of control and the T/C (dose: 7.5 mg/kg/injection, schedule: Q01DX005 (ip), vehicle: DMSO) was 106 % of control. For the same compound, the T/C (dose: 15.0 mg/kg/injection, schedule: Q01DX005 (ip), vehicle: DMSO) was 114 % of control.

In the case of `O=S1(=O)CC23C=CC=CC2(CCCC3)C1Cl` (stereo not given), the T/C (dose: 12.5 mg/kg/injection, schedule: Q01DX005 (ip), vehicle: Klucel (hydroxypropylcellulose) (HPC)) is reported as 93 % of control, the T/C [4] is reported as 89 % of control and the T/C [5] is reported as 91 % of control.

In the case of `CC1=CC(C)(C)N=C2SC(COc3ccccc3)=NN12`, the T/C [4] is reported as 116 % of control, the T/C [5] is reported as 109 % of control and the T/C [6] is reported as 107 % of control. The T/C [7] was 104 % of control.

In the case of `O=C1CSC(=S)N1c1ccc(F)c(F)c1`, the T/C (dose: 50.0 mg/kg/injection, schedule: Q01DX009 (ip), vehicle: saline) is reported as 107 % of control, the T/C (dose: 100.0 mg/kg/injection, schedule: Q01DX009 (ip), vehicle: saline) is reported as 106 % of control and the T/C (dose: 200.0 mg/kg/injection, schedule: Q01DX009 (ip), vehicle: saline) is reported as 108 % of control.

With `COC(=O)Nc1cnc(C)c(C)c1-c1ccc(OC)c(OC)c1OCc1ccccc1` the T/C (dose: 0.05 mg/kg/injection, schedule: Q01DX009 (ip), vehicle: water) was 96 % of control, the T/C (dose: 0.1 mg/kg/injection, schedule: Q01DX009 (ip), vehicle: water) was 111 % of control and the T/C (dose: 0.2 mg/kg/injection, schedule: Q01DX009 (ip), vehicle: water) was 110 % of control. The T/C (dose: 0.4 mg/kg/injection, schedule: Q01DX009 (ip), vehicle: water) was 104 % of control and 105 % of control, the T/C (dose: 0.8 mg/kg/injection, schedule: Q01DX009 (ip), vehicle: water) was 106 % of control and the T/C (dose: 1.6 mg/kg/injection, schedule: Q01DX009 (ip), vehicle: water) was 109 % of control. For the same compound, the T/C (dose: 3.2 mg/kg/injection, schedule: Q01DX009 (ip), vehicle: water) was 103 % of control, the T/C (dose: 6.25 mg/kg/injection, schedule: Q01DX009 (ip), vehicle: other) was 103 % of control and the T/C (dose: 6.4 mg/kg/injection, schedule: Q01DX009 (ip), vehicle: water) was 104 % of control. The T/C [8] was 103 % of control, the T/C [9] was 104 % of control and the T/C [10] was 98 % of control. The T/C [11] was 108 % of control, the T/C [12] was 99 % of control and the T/C (dose: 400.0 mg/kg/injection, schedule: Q01DX009 (ip), vehicle: other) was 99 % of control.

With `Cc1ccc2nc(NC(=O)N(CCCl)N=O)sc2c1` the T/C (dose: 400.0 mg/kg/injection, schedule: Q04DX003 (ip), vehicle: saline with Tween-80) was 168 % of control.

With `O=c1ccncn1C1OC(CO)C(O)C1O` (stereo not given) the T/C (dose: 60.0 mg/kg/injection, schedule: Q01DX005 (ip), vehicle: saline) was 103 % of control, the T/C (dose: 120.0 mg/kg/injection, schedule: Q01DX005 (ip), vehicle: saline) was 102 % of control and the T/C (dose: 240.0 mg/kg/injection, schedule: Q01DX005 (ip), vehicle: saline) was 110 % of control.

In the case of `CCN(CC)CCC(=O)Nc1cccc2c1C(=O)c1c(c(O)c3ccccc3c1O)C2=O`, the T/C (dose: 6.25 mg/kg/injection, schedule: Q04DX003 (ip), vehicle: Klucel (hydroxypropylcellulose) (HPC)) is reported as 100 % of control, the T/C (dose: 12.5 mg/kg/injection, schedule: Q04DX003 (ip), vehicle: Klucel (hydroxypropylcellulose) (HPC)) is reported as 100 % of control and the T/C (dose: 25.0 mg/kg/injection, schedule: Q04DX003 (ip), vehicle: Klucel (hydroxypropylcellulose) (HPC)) is reported as 104 % of control. For the same compound, the T/C (dose: 25.0 mg/kg/injection, schedule: Q04DX003 (ip), vehicle: saline) was 98 % of control, the T/C (dose: 50.0 mg/kg/injection, schedule: Q04DX003 (ip), vehicle: Klucel (hydroxypropylcellulose) (HPC)) was 100 % of control and the T/C (dose: 50.0 mg/kg/injection, schedule: Q04DX003 (ip), vehicle: saline) was 92 % of control. The T/C (dose: 100.0 mg/kg/injection, schedule: Q04DX003 (ip), vehicle: Klucel (hydroxypropylcellulose) (HPC)) was 106 % of control, the T/C (dose: 100.0 mg/kg/injection, schedule: Q04DX003 (ip), vehicle: saline) was 108 % of control and the T/C (dose: 200.0 mg/kg/injection, schedule: Q04DX003 (ip), vehicle: saline) was 100 % of control.

For `O=C1CCC(NCCc2ccccc2)C(=O)O1` (stereo not given), the T/C [1] was 98 % of control, the T/C [2] was 92 % of control and the T/C [3] was 103 % of control.

For `CCCCCCCCCCCCCCCC[N+](C)(C)CCNC(=O)c1ccccc1`, the T/C (dose: 3.12 mg/kg/injection, schedule: Q01DX009 (ip), vehicle: water) was 101 % of control, the T/C (dose: 6.25 mg/kg/injection, schedule: Q01DX009 (ip), vehicle: water) was 106 % of control and the T/C (dose: 12.5 mg/kg/injection, schedule: Q01DX009 (ip), vehicle: water) was 99 % of control and 101 % of control.

`Cc1ccc2occ3c(=O)n(C)nc-3c2c1` was tested, and the T/C [13] was 95 % of control, the T/C [14] was 91 % of control and the T/C [15] was 94 % of control.

For `COc1ccccc1NC(N)=S`, the T/C (dose: 25.0 mg/kg/injection, schedule: Q01DX009 (ip), vehicle: Klucel (hydroxypropylcellulose) (HPC)) was 96 % of control, the T/C [1] was 98 % of control and the T/C [2] was 96 % of control. The T/C [3] was 97 % of control.

`CN(C)C(n1cc2c(c1)-c1ccc(Cl)cc1C(c1ccccc1F)=NC2)n1cc2c(c1)-c1ccc(Cl)cc1C(c1ccccc1F)=NC2` was tested, and the T/C [13] was 93 % of control, the T/C [14] was 92 % of control and the T/C [15] was 91 % of control.

In the case of `O=CC(Br)C(Br)c1ccccc1` (stereo not given), the T/C (dose: 6.25 mg/kg/injection, schedule: Q01DX009 (ip), vehicle: saline with Tween-80) is reported as 122 % of control, the T/C (dose: 6.25 mg/kg/injection, schedule: Q04DX003 (ip), vehicle: saline with Tween-80) is reported as 109 % of control and the T/C (dose: 12.5 mg/kg/injection, schedule: Q01DX009 (ip), vehicle: saline with Tween-80) is reported as 109 % of control. The T/C (dose: 12.5 mg/kg/injection, schedule: Q04DX003 (ip), vehicle: saline with Tween-80) was 109 % of control, the T/C (dose: 25.0 mg/kg/injection, schedule: Q01DX009 (ip), vehicle: saline with Tween-80) was 100 % of control and the T/C (dose: 25.0 mg/kg/injection, schedule: Q04DX003 (ip), vehicle: saline with Tween-80) was 113 % of control.

With `Cc1cc(Br)c(O)c(C(=NCC(C)N=C(c2ccccc2)c2cc(C)cc(Br)c2O)c2ccccc2)c1` (stereo not given) the T/C [4] was 100 % of control, the T/C [5] was 96 % of control and the T/C [6] was 100 % of control. For the same compound, the T/C [7] was 96 % of control.

In the case of `Cc1ccc(S(=O)(=O)N/N=C/C=N/NS(=O)(=O)c2ccc(C)cc2)cc1`, the T/C [8] is reported as 106 % of control, the T/C [9] is reported as 107 % of control and the T/C [10] is reported as 105 % of control. For the same compound, the T/C [11] was 96 % of control and the T/C [12] was 97 % of control.

— PubChem BioAssay AID330 (DTP/NCI, 2004)
